According to patent US20240285615A1, “MEDICAMENTS COMPRISING GLYCOSIDASE INHIBITORS” (priority 2021, published 2024):
Where two headings read alike, the source gives them in different places.

Legend:
[1] = system: kainate-induced seizure rat model; conditions: rats, daily oral gavage for 3 consecutive days
Experimental: Compound of formula (I) is evaluated in the kainate-induced seizure rat model. Sprague-Dawley rats are treated with intraperitoneal injection of kainate (10 mg/kg) to induce seizure or with saline as vehicle control. […] The onset of status epilepticus (SE) is defined as the time from kainate injection to the occurrence of continuous seizure activity (Racine score 4-5) over a period of 4 h. Four weeks following the administration of kainate, animals undergo EEG surgery for electrodes implantation at the surface of the dura mater. […] Then, the animals receive a daily administration (oral gavage) of compound formula (I) for 3 consecutive days during which, cerebral activity is monitored by EEG recording. Animals are finally sacrificed ninety-six hours (4 days) post-baseline.

[2] = Phase 1 Part 2: multiple BID doses for 12 days, plasma pharmacokinetics; assay type: in vivo, human; conditions: for AR (accumulation ratio, AUC0-tau at Day 12/AUC0-tau at Day 1) / concentration at 12 day / Cmax / Tmax / half-life / AUC: plasma; for concentration at 12 day / Cmax / Tmax / half-life / AUC: both sexes, human; for concentration at 12 day: in vivo, read-out: Cmin; for Cmax / Tmax / half-life / AUC: oral; for Tmax: median (min, max); for AUC: read-out: AUC0-tau
Experimental: The study was a single-centre, randomized, placebo-controlled single- and multiple ascending dose study in healthy male and female (no childbearing potential) volunteers aged 18-80 years. Study objectives were safety, tolerability, food effect and pharmacokinetics. Following identification of safe and tolerable single doses in healthy male subjects aged 18-55 years, separate cohorts were dosed to assess food effect. Furthermore, multiple-dose safety, tolerability, pharmacokinetics, CSF drug levels and pharmacodynamics were assessed in elderly (age 55-80 years) male or healthy non-child-bearing potential female volunteers.
Day 1: Twice a day (BID) dosing. Day 2: No dosing. Day 3-11: 9 days of BID dosing. Day 12: one dose in the morning.

[3] = 100 mg BID, Day 12, elderly subjects, arithmetic mean
[4] = 250 mg BID, Day 12, elderly subjects, arithmetic mean
[5] = 500 mg BID, Day 12, elderly subjects, arithmetic mean

Compound: CC(=O)Nc1nnc(N2CCN([C@@H](C)c3ccc4c(c3)OCO4)CC2)s1 [Compound (I)]
- epileptic activity by EEG (number of seizures, seizure duration, interictal spike frequency) [1]: reducing the epileptic activity
- AR (accumulation ratio, AUC0-tau at Day 12/AUC0-tau at Day 1) [2, 3]: 1.35
- AR (accumulation ratio, AUC0-tau at Day 12/AUC0-tau at Day 1) [2, 4]: 1.36
- AR (accumulation ratio, AUC0-tau at Day 12/AUC0-tau at Day 1) [2, 5]: 1.25
- dose proportionality of Cmax, AUC0-tau and AUC12-24 ([2]; Day 1, BID 100 mg to BID 500 mg): Dose proportionality was observed
- dose proportionality of Cmax, AUC0-tau and AUC0-48 ([2]; Day 12, BID 100 mg to BID 500 mg): Dose proportionality was observed
- concentration at 12 day [2, 3]: 84 ng/mL
- concentration at 12 day [2, 4]: 308 ng/mL
- concentration at 12 day [2, 5]: 743 ng/mL
- Cmax ([2]; 100 mg, 100 mg BID, Day 1 (first dose), elderly subjects, arithmetic mean): 1450 ng/mL
- Tmax ([2]; 100 mg, 100 mg BID, Day 1 (first dose), elderly subjects): 0.75 h
- half-life ([2]; 100 mg, 100 mg BID, Day 1, elderly subjects, arithmetic mean, read-out: t1/2 (converted)): 3.9 h
- AUC ([2]; 100 mg, 100 mg BID, Day 1, tau 12 h, elderly subjects, arithmetic mean): 4120 ng·h/mL
- Cmax ([2]; 100 mg, 100 mg BID, Day 12, elderly subjects, arithmetic mean): 1340 ng/mL
- half-life ([2]; 100 mg, 100 mg BID, Day 12, elderly subjects, arithmetic mean, read-out: t1/2 (converted)): 7.84 h
- Tmax ([2]; 100 mg, 100 mg BID, Day 12, elderly subjects): 2.25 h
- AUC ([2]; 100 mg, 100 mg BID, Day 12, tau 12 h, elderly subjects, arithmetic mean): 5440 ng·h/mL
- Cmax ([2]; 250 mg, 250 mg BID, Day 1 (first dose), elderly subjects, arithmetic mean): 3630 ng/mL
- Tmax ([2]; 250 mg, 250 mg BID, Day 1 (first dose), elderly subjects): 0.5 h
- half-life ([2]; 250 mg, 250 mg BID, Day 1, elderly subjects, arithmetic mean, read-out: t1/2 (converted)): 4.74 h
- AUC ([2]; 250 mg, 250 mg BID, Day 1, tau 12 h, elderly subjects, arithmetic mean): 10700 ng·h/mL
- Cmax ([2]; 250 mg, 250 mg BID, Day 12, elderly subjects, arithmetic mean): 3740 ng/mL
- half-life ([2]; 250 mg, 250 mg BID, Day 12, elderly subjects, arithmetic mean, read-out: t1/2 (converted)): 10.2 h
- Tmax ([2]; 250 mg, 250 mg BID, Day 12, elderly subjects): 1 h
- AUC ([2]; 250 mg, 250 mg BID, Day 12, tau 12 h, elderly subjects, arithmetic mean): 14300 ng·h/mL
- Cmax ([2]; 500 mg, 500 mg BID, Day 1 (first dose), elderly subjects, arithmetic mean): 6440 ng/mL
- Tmax ([2]; 500 mg, 500 mg BID, Day 1 (first dose), elderly subjects): 1.02 h
- half-life ([2]; 500 mg, 500 mg BID, Day 1, elderly subjects, N=1, read-out: t1/2 (converted)): 6.19 h
- AUC ([2]; 500 mg, 500 mg BID, Day 1, tau 12 h, elderly subjects, arithmetic mean): 24300 ng·h/mL
- Cmax ([2]; 500 mg, 500 mg BID, Day 12, elderly subjects, arithmetic mean): 6670 ng/mL
- half-life ([2]; 500 mg, 500 mg BID, Day 12, elderly subjects, arithmetic mean, read-out: t1/2 (converted)): 10.7 h
- Tmax ([2]; 500 mg, 500 mg BID, Day 12, elderly subjects): 1.5 h
- AUC ([2]; 500 mg, 500 mg BID, Day 12, tau 12 h, elderly subjects, arithmetic mean): 30200 ng·h/mL
- half-life ([2]; 100 to 500 mg BID, single dose and multiple dose conditions, read-out: terminal half-life (t½), range of means): 3.9 to 10.7 h
